Square brackets hold non-standard residues; d marks the D form. Peptide text beside a SMILES is read from it. * marks the point of attachment. X1 = CC(=O)N[C@@H]1[C@@H](O[C@@H]2O[C@H](CO)[C@H](O)[C@H](O)[C@H]2O)[C@@H](O)[C@@H](CO[C@@H]2O[C@H](CO)[C@@H](O[C@@H]3O[C@H](CO)[C@H](O)[C@H](O[C@]4(C(=O)O)C[C@H](O)[C@@H](NC(C)=O)[C@H]([C@H](O)[C@H](O)CO)O4)[C@H]3O)[C@H](O[C@@H]3O[C@@H](C)[C@@H](O)[C@@H](O)[C@@H]3O)[C@H]2NC(C)=O)O[C@@H]1*; Phe(4-CH2SO3H) = N[C@@H](Cc1ccc(CS(=O)(=O)O)cc1)C(=O)O

The target in the assay is human P-selectin (Fc chimera) binding to PSGL-1 on U-937 monocytes (Homo sapiens, UniProt P16109). As to the kind of experiment: Flow cytometry: inhibition of P-selectin-Fc chimera binding to U-937 monocytes. The class given is cell-based. On the technique in general: A flow cytometer gives signals particle by particle.

Regarding `CC(=O)N[C@H]1[C@H](OC[C@H]2O[C@H](O[C@H](C)[C@H](NC(=O)[C@H](CCC(=O)O)NC(=O)[C@@H]3CCCN3C(=O)[C@H](CC(C)C)NC(=O)[C@H](Cc3ccccc3)NC(=O)[C@H](CC(=O)O)NC(=O)[C@H](Cc3ccc(CS(=O)(=O)O)cc3)NC(=O)[C@H](CC(=O)O)NC(=O)[C@H](CC(C)C)NC(=O)[C@H](Cc3ccc(CS(=O)(=O)O)cc3)NC(=O)[C@H](CCC(=O)O)NC(=O)[C@H](Cc3ccc(CS(=O)(=O)O)cc3)NC(=O)[C@H](CCC(=O)O)NC(=O)[C@H](CCCCN)NC(C)=O)C(=O)N[C@@H](CCC(=O)O)C(=O)N3CCC[C@H]3C(=O)N[C@@H](CC(C)C)C(=O)O)[C@H](NC(C)=O)[C@@H](O[C@@H]3O[C@H](CO)[C@H](O)[C@H](O)[C@H]3O)[C@H]2O)O[C@H](CO)[C@@H](O[C@@H]2O[C@H](CO)[C@H](O)[C@H](O[C@]3(C(=O)O)C[C@H](O)[C@@H](NC(C)=O)[C@H]([C@H](O)[C@H](O)CO)O3)[C@H]2O)[C@@H]1O[C@@H]1O[C@@H](C)[C@@H](O)[C@@H](O)[C@@H]1O` [GSnP-6] (Ac-KE[Phe(4-CH2SO3H)]E[Phe(4-CH2SO3H)]LD[Phe(4-CH2SO3H)]DFLPET(X1)EPL-OH; C-terminus assumed), the IC50 came out at 11.1 µM.

The term IC50 denotes the point on the concentration scale where inhibition reaches its midpoint.

The values are drawn from publication PMC11513618 (RSC Advances, 2024).
